Key:
[1] = system: Trichophyton rubrum B68183; test: Antifungal activity in vitro (resazurin susceptibility screen), Inf. C; assay type: cell-based; conditions: Trichophyton rubrum B68183; 27 °C, 7 days, resa time 24 hours; read-out: Inf. C pIC50 (converted)
Procedure: (§1) The standard susceptibility screen was performed in 96-well plates (U-bottom, Greiner Bio-One). […] These serial dilutions (10 n1) were then spotted onto test-plates that could be stored in the dark at 4° C. for a maximum period of 2 weeks. […] The different fungal species/isolates (Table 3a) were cryopreserved and 1/1000 diluted in medium just prior to use. A standard inoculum of 200 μl containing 10^3 colony-forming unit (cfu) was then added to each well. A positive control (100% growth=fungal culture without antifungal) and a negative control (0% growth ═RPMI-MOPS medium) were included on each plate. […] [table]

[2] = system: Cryptococcus neoformans B66663; test: Antifungal activity in vitro (resazurin susceptibility screen), Inf. F; assay type: cell-based; conditions: Cryptococcus neoformans, B66663, Cryptococcus neoformans B66663; 37 °C, 24 hours, resa time 4 hours; read-out: Inf. F pIC50 (converted)
Procedure: as §1

[3] = system: Microsporum canis B68128; test: Antifungal activity in vitro (resazurin susceptibility screen), Inf. B; assay type: cell-based; conditions: Microsporum canis, B68128, Microsporum canis B68128; 27 °C, 9 days, resa time 24 hours; read-out: Inf. B pIC50 (converted)
Procedure: (§2) The standard susceptibility screen was performed in 96-well plates (U-bottom, Greiner Bio-One). […] These serial dilutions (10 n1) were then spotted onto test-plates that could be stored in the dark at 4° C. for a maximum period of 2 weeks. […] A standard inoculum of 200 μl containing 10^3 colony-forming unit (cfu) was then added to each well. A positive control (100% growth=fungal culture without antifungal) and a negative control (0% growth ═RPMI-MOPS medium) were included on each plate.

[4] = system: Trichophyton mentagrophytes B70554; test: Antifungal activity in vitro (resazurin susceptibility screen), Inf. G; assay type: cell-based; conditions: Trichophyton mentagrophytes, B70554, Trichophyton mentagrophytes B70554; 27 °C, 7 days, resa time 24 hours; read-out: Inf. G pIC50 (converted)
Procedure: as §2

[5] = Liver metabolic stability assay, hLM; assay type: in vitro ADME, human; conditions: human liver microsomes, 1 mg protein/ml, 5 μM test compound, 15 min, 37 °C
Procedure: Liver preparations (microsomal fractions) were obtained from BD Gentest (San Jose, Calif., US). Metabolic stability was assessed using the following assay conditions. […] The mixture was pre-incubated at 37° C. for 5 min and the enzymatic reaction was started by addition of 5 μM test compound. After 0 (control) and 15 minutes (min), the reactions were terminated by addition of […] (500 μl). The precipitated material was removed by centrifugation at 1200 g for 10 min. The supernatant was analysed by LC-MS/MS on a ThermoFinnigan LCQ Deca XP ion-trap mass spectrometer equipped with an atmospheric pressure chemical ionisation source. Calculation of %-compound remaining was as described by Kantharaj et al. 2003 ((Kantharaj E., Tuytelaars A, Proost P E A, Ongel Z, van […] (2003). Simultaneous measurement of drug metabolic stability and identification of metabolites using ion-trap mass spectrometry.

[6] = biological target: CYP3A4 (Homo sapiens, UniProt P08684); test: Cytochrome P450 inhibition, Protocol A, cDNA expressed proteins, fluorogenic substrates; assay type: in vitro ADME; conditions: % inhibition at 10 μM, cDNA expressed protein
Procedure: (§3) All fluorogenic based assays were performed in Black Costar 96-well plates according to Crespi et al 1997 with minor modifications (Crespi C L, Miller V P & Penman B W (1997). Microtiter plate assays for inhibition of human, drug-metabolizing cytochromes P450. Anal. Biochem. Vol 248, 1898-1900). Assay conditions are outlined in Table 5a. For cytochrome P450 3A4, three different fluorogenic substrates were used. Each reaction mixture consisted of the appropriate concentration of enzyme, NADPH-generating system (“NADPH” means β-nicotinamide adenine dinucleotide phosphate, reduced), substrate in sodium/potassium buffer (pH 7.4). For each cytochrome P450 batch Michealis-Menten kinetics were determined using 11 concentrations.
(§4) Thereafter, further dilutions were made in acetonitrile. […] The compounds were serially diluted to give final concentrations ranging from 1 nM to 10 μM. The reaction mixtures, whereby 1 μL of buffer was replaced by compound solution, were pre-warmed for 5 min at 37° C. and the reaction was initiated by the addition of β-nicotinamide adenine dinucleotide phosphate (NADP+). Reactions were terminated by addition of stopping reagent and the fluorescence was measured using a Fluoroscan (Labsystems, Brussel, Belgium).
(§5) In Table 5a, the following abbreviations were used: 3-cyano-7-ethocycoumarin (CEC), 7-methoxy-4-trifluoromethylcoumarin (MFC), 3-[2-(N,N-diethyl-N-methylamino)ethyl]-7-methoxy-4-methylcoumarin (AMMC), 7-benzyloxy-trifluoromethyl coumarin (BFC), 7-benzyloxyquinoline (BQ) and dibenzyl fluorescein (DBF).

[7] = system: Candida parapsilosis B66126; test: Antifungal activity in vitro (resazurin susceptibility screen), Inf. D; assay type: cell-based; conditions: Lodderomyces parapsilosis; Candida parapsilosis B66126; 37 °C, 24 hours, resa time 4 hours; read-out: Inf. D pIC50 (converted)
Procedure: as §2

[8] = system: Aspergillus fumigatus B42928; test: Antifungal activity in vitro (resazurin susceptibility screen), Inf. E; assay type: cell-based; conditions: Aspergillus fumigatus B42928; 27 °C, 48 hours, resa time 17 hours; read-out: Inf. E pIC50 (converted)
Procedure: as §1

[9] = system: Sporothrix schenkii B62482; test: Antifungal activity in vitro (resazurin susceptibility screen), Inf. A; assay type: cell-based; conditions: Sporothrix, B62482, Sporothrix schenkii B62482; 27 °C, 4 days, resa time 24 hours; highest in-test concentration 64 μM; read-out: Inf. A pIC50 (converted)
Procedure: as §1

[10] = biological target: T1, CYP1A2 (Homo sapiens, UniProt P05177); test: Cytochrome P450 inhibition, Protocol A, cDNA expressed proteins, fluorogenic substrate; assay type: in vitro ADME; conditions: % inhibition at 10 μM; substrate CEC; cDNA expressed protein
T1 sequence (P05177 1-516): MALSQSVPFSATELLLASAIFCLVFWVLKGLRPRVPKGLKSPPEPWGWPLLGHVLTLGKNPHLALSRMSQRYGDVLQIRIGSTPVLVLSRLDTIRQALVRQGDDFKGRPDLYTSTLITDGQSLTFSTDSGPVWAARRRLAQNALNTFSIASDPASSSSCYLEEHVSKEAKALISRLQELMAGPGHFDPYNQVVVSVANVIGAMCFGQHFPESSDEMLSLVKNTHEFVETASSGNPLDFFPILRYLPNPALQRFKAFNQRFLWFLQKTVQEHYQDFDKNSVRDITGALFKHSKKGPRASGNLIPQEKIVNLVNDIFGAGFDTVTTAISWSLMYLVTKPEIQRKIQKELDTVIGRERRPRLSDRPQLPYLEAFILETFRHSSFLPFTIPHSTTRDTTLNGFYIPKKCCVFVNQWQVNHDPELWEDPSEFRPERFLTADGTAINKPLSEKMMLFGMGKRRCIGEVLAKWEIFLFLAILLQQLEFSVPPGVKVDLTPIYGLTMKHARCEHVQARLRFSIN
Procedure: as §3, §4, §5

[11] = biological target: CYP2C9 (Homo sapiens, UniProt P11712); test: as above; assay type: in vitro ADME; conditions: % inhibition at 10 μM; substrate MFC; cDNA expressed protein
Procedure: as §3, §4, §5

[12] = biological target: CYP2D6 (Homo sapiens, UniProt P10635); test: as above; assay type: in vitro ADME; conditions: % inhibition at 10 μM; substrate AMMC; cDNA expressed protein
Procedure: as §3, §4, §5

[13] = biological target: Cytochrome P450 2D6 (Homo sapiens, UniProt P10635); test: Human liver microsomal cytochrome P450 cocktail inhibition assay, Protocol C; conditions: 2D6_Dextro pIC50, human liver microsomes 0.2 mg/ml; probe dextromethorphan 3 microM
Procedure: (§6) Probe substrates and final assay concentrations with the appropriate internal standard are outlined in Table 6a.
(§7) Assays were performed in 0.1 M phosphate buffer (pH 7.4), containing 0.2 mg/ml human liver microsomes (BD Gentest) and a probe substrate mix consisting of: phenacetin, tolbutamide, S-mephenyloin, dextromethorphan, amodiaquine and midazolam (Table 6a) and a range of test compound concentrations (0 to 30 micromolar) in a total volume of 100 microliters. After a 10 min pre-incubation at 37° C., the reaction was started with addition of NADPH at a final concentration of 1.0 mM. […] The samples are centrifuged for 10 min at 4° C. at 4000 rpm and 60 microliters supernatant is diluted with 180 microliters water. Each sample is injected onto a UPLC/MS system for the simultaneous measurement of the probe substrate metabolites and their associated deuterated internal standards. Percentage inhibition is calculated according to: %-inhibition=(1−Ri/R)*100, whereby Ri and R are the metabolite to internal standard peak area ratios in the presence and absence of inhibitor respectively.
(§8) Percentage inhibition data are plotted against the Log transformed test compound concentration and after curve fitting the IC50-value is determined.

[14] = biological target: Cytochrome P450 2C19 (Homo sapiens, UniProt P33261); test: as above; conditions: 2C19_S-Meph pIC50, human liver microsomes 0.2 mg/ml; probe S-mephenytoin 30 microM
Procedure: as §6, §7, §8

[15] = biological target: T2, Cytochrome P450 1A2 (Homo sapiens, UniProt P05177); test: as above
T2 sequence (P05177 1-516): T1 sequence (P05177 1-516)
Procedure: as §6, §7, §8

[16] = biological target: Cytochrome P450 2C9 (Homo sapiens, UniProt P11712); test: as above; conditions: 2C9 Tolbut pIC50, human liver microsomes 0.2 mg/ml; probe tolbutamide 100 microM
Procedure: as §6, §7, §8

Chain of CYP3A4 (P08684 whole entry): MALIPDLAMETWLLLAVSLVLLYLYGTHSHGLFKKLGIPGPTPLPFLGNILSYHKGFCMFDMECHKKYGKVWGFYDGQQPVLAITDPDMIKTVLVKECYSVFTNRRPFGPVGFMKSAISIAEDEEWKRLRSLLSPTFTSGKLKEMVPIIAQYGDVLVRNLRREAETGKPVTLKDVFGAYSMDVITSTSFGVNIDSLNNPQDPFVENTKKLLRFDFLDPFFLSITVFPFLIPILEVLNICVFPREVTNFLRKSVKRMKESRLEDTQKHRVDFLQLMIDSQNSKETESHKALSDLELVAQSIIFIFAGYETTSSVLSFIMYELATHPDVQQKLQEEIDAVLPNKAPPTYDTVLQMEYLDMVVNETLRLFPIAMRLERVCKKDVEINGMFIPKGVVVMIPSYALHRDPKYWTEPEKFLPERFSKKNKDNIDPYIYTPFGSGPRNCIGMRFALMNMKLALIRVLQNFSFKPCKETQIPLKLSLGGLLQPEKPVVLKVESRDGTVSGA
Chain of Cytochrome P450 2C19 (P33261 whole entry): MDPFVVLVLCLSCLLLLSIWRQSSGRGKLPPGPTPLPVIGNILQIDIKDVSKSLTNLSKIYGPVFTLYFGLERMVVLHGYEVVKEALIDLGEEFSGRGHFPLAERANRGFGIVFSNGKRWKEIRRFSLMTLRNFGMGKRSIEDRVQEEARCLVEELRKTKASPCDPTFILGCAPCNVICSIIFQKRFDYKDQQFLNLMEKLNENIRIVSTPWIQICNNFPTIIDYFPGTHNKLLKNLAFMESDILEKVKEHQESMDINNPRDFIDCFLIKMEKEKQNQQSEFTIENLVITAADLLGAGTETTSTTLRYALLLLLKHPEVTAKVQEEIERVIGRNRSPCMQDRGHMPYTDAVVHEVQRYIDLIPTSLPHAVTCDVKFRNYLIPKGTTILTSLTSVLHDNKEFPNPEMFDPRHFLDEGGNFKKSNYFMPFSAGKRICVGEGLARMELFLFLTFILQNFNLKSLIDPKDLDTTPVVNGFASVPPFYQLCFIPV
Chain of Cytochrome P450 2C9 (P11712 whole entry): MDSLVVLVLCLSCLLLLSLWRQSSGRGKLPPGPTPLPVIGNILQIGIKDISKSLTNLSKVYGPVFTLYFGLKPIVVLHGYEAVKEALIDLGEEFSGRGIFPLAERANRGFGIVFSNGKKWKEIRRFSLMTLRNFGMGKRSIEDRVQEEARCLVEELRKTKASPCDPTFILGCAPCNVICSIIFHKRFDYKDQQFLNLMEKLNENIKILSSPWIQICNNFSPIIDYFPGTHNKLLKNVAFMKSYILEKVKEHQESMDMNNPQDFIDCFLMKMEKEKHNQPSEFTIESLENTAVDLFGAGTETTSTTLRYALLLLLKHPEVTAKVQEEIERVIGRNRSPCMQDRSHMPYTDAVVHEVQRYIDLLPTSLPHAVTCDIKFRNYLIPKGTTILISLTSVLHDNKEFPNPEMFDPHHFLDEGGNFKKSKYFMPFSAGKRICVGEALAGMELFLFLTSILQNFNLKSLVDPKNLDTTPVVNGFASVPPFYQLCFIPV
Chain of CYP2C9 (P11712 whole entry): as above
Chain of Cytochrome P450 2D6 (P10635 whole entry): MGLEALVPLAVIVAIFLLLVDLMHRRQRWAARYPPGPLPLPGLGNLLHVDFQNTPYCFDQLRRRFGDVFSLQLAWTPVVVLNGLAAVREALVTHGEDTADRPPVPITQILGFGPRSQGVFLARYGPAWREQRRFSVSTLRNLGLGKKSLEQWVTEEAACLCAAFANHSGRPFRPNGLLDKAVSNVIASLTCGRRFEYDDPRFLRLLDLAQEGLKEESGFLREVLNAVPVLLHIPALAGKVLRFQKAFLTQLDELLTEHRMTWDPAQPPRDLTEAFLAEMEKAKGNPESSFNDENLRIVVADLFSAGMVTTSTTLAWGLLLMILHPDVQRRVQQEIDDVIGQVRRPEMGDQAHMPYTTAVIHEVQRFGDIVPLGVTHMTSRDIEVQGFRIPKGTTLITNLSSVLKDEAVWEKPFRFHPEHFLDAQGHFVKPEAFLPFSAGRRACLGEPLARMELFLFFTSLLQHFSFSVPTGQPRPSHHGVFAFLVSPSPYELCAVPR
Chain of CYP2D6 (P10635 whole entry): as above

| IC50 [1] | IC50 [2] | IC50 [3] | IC50 [4] | %-compound metabolised_Met_hLM [5] | hCYP3A4_BFC_Pct_Inh ([6]; substrate BFC) | hCYP3A4_BQ_Pct_Inh ([6]; substrate BQ) | hCYP3A4_DBF_Pct_Inh ([6]; substrate DBF) | IC50 [7] | IC50 [8] | IC50 [9] | hCYP1A2_CEC_Pct_Inh [10] | hCYP2C9_MFC_Pct_Inh [11] | hCYP2D6_AMMC_Pct_Inh [12] | melting point | Structure (SMILES) | IC50 [13] | IC50 [14] | IC50 [15] | IC50 [16] |
| --- | --- | --- | --- | --- | --- | --- | --- | --- | --- | --- | --- | --- | --- | --- | --- | --- | --- | --- | --- |
| 5.01 µM | > 63.1 µM | 3.16 µM | 10 µM | 80% | 21% | 29% | 21% | > 63.1 µM | > 63.1 µM | > 63.1 µM | 21% | 45% | 11% |  | CC(=O)c1ccc(C2=NCc3c(Cl)ccc(Cl)c3-n3cccc32)cc1 [Compound 25, 1-[4-(7,10-dichloro-6H-pyrrolo[1,2-a][1,4]benzodiazepin-4-yl)phenyl]-ethanone] |  |  |  |  |
| 2.51 µM | 31.6 µM | 10 µM | 6.31 µM |  |  |  |  | > 63.1 µM | 50.1 µM | > 63.1 µM |  |  |  | 92 to 95 °C | CS(=O)(=O)c1ccc(C2=NCc3c(F)cccc3-n3cccc32)cc1 [Compound 29, 7-fluoro-4-[4-(methylsulfonyl)phenyl]-6H-pyrrolo[1,2-a][1,4]benzodiazepine] |  |  |  |  |
| > 63.1 µM | > 63.1 µM | > 63.1 µM | > 63.1 µM |  |  |  |  | > 63.1 µM | > 63.1 µM | > 63.1 µM |  |  |  | 221.2 to 221.5 °C | CS(=O)(=O)c1cccc(C2=NCc3c(Cl)cc(Cl)cc3-n3cccc32)c1 [Compound 31, 7,9-dichloro-4-[3-(methylsulfonyl)phenyl]-6H-pyrrolo[1,2-a][1,4]benzodiazepine] |  |  |  |  |
|  |  |  |  |  |  |  |  |  |  |  |  |  |  |  | CC(=O)c1ccc(C2NCc3c(Cl)cccc3-n3cccc32)cc1 (stereo not shown) [drawing 94] | 3.16 µM | 3.16 µM | > 10 µM | 3.16 µM |

Source: patent publication US9040523B2, “Antifungal 5,6-dihydro-4H-pyrrolo[1,2-α][1,4]-benzodiazepines and 6H-pyrrolo[1,2-α][1,4]benzodiazepines substituted with benzene derivatives” (JANSSEN PHARMACEUTICA NV, priority 2010, dated 2015)
